Assay [1] deals with Raw 264.7 murine macrophages. The assay is described as follows: IFN-stimulated macrophages in PEGDA hydrogels, in vitro mimic of intra-articular injection. Format: cell-based. As for the experimental part: Referring now to FIG. 5A, an in vitro experiment was designed to mimic an intra-articular injection of potassium osmolytes consistent with the embodiments described above. Poly(ethylene glycol) diacrylate hydrogels encapsulated with proinflammatory interferon-gamma (IFN)-stimulated macrophages (M(IFN)s) were prepared. M(IFN)s were cultured for 5 days in the continued presence of IFN, with 80 mM K+ applied only during the first day and then removed. Other IA injection formulations—human mesenchymal stem cells (MSCs) and methylprednisolone acetate (MPA)—were also included to gain a sense of efficacy and benchmark against current OA treatments.
The PEGDA hydrogel (˜50 kPa stiffness) was provided at the bottom of the culture well to create a surface that more closely matches the stiffness of articular cartilage (aggregate modulus ˜500 kPa) than traditional plastic 2D surfaces (˜1×10^6 kPa). MSC behavior is known to respond to substrate stiffness. Assessments for treatment efficacy included cell lysate levels of several proinflammatory markers, anti-inflammatory markers, and the ratio between anti/proinflammatory profiles.
(§1) Raw 264.7 murine macrophages (a cell line) were thawed and expanded in regular growth medium: high-glucose Dulbecco's modified Eagle's medium (DMEM; Corning) supplemented with 10% fetal bovine serum (FBS; Hyclone, Atlanta Biologicals, Inc.). Primary human OACs (Cell Applications, Inc.) were expanded in chondrogenic growth media for four passages, transitioned into regular growth medium for 1 passage, and utilized at passage 5.
Aliquots ([…]; 1×10^6 cells per construct) of the cell/polymer suspension were dispensed into the wells of a 48-well plate (Corning) and cured by exposure to long-wave UV light (˜10 mW/cm^2) for 6 min. […]
Referring now to FIGS. 5B and 5C, relative protein production of proinflammatory and anti-inflammatory molecules and the ratio between anti/proinflammatory profiles in Raw 264.7 macrophages were determined after 5 days in culture. […]

In a further assay the test system is Primary human OACs. The assay is described as follows: Inflammatory protein production in osteoarthritic chondrocytes after short-term K+ treatment. Format: cell-based.
Source text: as §1
Referring now to FIGS. 5B and 5C, relative protein production of proinflammatory and anti-inflammatory molecules and the ratio between anti/proinflammatory profiles in Raw 264.7 macrophages were determined after 5 days in culture. “*” denotes a significant difference relative to IFN controls. “#” denotes a significant difference relative to 24-h 80 mM K^+ gluconate. “+” denotes a significant difference relative to 24-h MSCs.

Entries after “also recorded” stand apart in the source; their conditions may differ.

As to `O=C([O-])[C@H](O)[C@@H](O)[C@H](O)[C@H](O)CO.[K+]` [K+ gluconate, potassium gluconate], the “anti/proinflammatory cytokine ratio (relative protein production)” value in assay [1] (80 mM K+ applied during the first day only, 5 days in culture in continued presence of IFN, relative to IFN controls) is “significantly enhanced”. For the same molecule, the macrophage polarization entry in assay [1] (80 mM, M(IFN)s) is recorded as “toward an anti-inflammatory/proresolving phenotype”. Besides, the “anti/proinflammatory profile, 40 mM versus 80 mM treatment” value in assay [1] (comparison between 40 and 80-mM treatments) was “not significantly different”. Besides, in the assay with Primary human OACs, the IL-8 production result is reported as “extended benefit” and the MCP-1 production result is given as “extended benefit”. Also, the MMP-13 production entry in the assay on Primary human OACs (listed as K^+) is listed as “extended benefit; also recorded: reduced production”.

For the origin of these results see patent US20220347139A1, “METHOD OF TREATMENT VIA INTRA-ARTICULAR APPLICATION OF POTASSIUM” (Rensselaer Polytechnic Institute, priority 2018, published 2022).
